Experimental data: patent publication US20140050677A1, “Personal care and medicinal products incorporating bound organosulfur groups” (priority 2006, published 2014)
Entries after “also recorded” stand apart in the source; their conditions may differ. Where two headings read alike, the source gives them in different places.

Columns and labels:
[1] = test system: Cu2^+ induced LDL oxidation; conditions: cited from earlier work
[2] = cited from earlier work; for time of disappearance from breath: after garlic consumption; for breath AMS and acetone production: after consumption
[3] = test system: trypsin enzyme inhibitor; conditions: cysteine 2% by weight, soy flour heated at 65 degrees C. for 1 hour; cited from earlier work
[4] = cited from earlier work
[5] = cited from earlier work; for metabolism in blood: disappearing in the process; for Reaction in Blood Half-life: in vitro
[6] = test system: total glutathione level of cells; conditions: in vitro administration of SAMC; cited from earlier work
[7] = test system: acetaminophen poisoning; conditions: mice, cited from earlier work
[8] = during the first hour after consumption; cited from earlier work
[9] = test system: NFkB; conditions: macrophages, cited from earlier work
[10] = without nitrosothiol formation; cited from earlier work
[11] = molecular target: NFkB signal transduction proteins p50 and P65 (Homo sapiens, UniProt P19838+Q04206); conditions: measured with a nitric oxide probe; cited from earlier work
[12] = test system: plaque; test: Diluted allyl mercaptan poured over the toothbrush bristles (Applicant); type: in vivo; conditions: 1/200 in distilled water on toothbrush, a week of use
From the text: Because allyl mercaptan and propyl mercaptan are water soluble, it is easier to experiment with them than with diallyl disulfide or dipropyl disulfide (which are an oils).

[13] = in vitro, in the presence of cysteine; cited from earlier work
[14] = test system: glutathione; conditions: daily dosage of 1000 mg, multiple myeloma patients; cited from earlier work
[15] = test system: leukemia cell cultures; conditions: co-administered to reduce glutathione; cited from earlier work
[16] = test system: E-coli O157:H7; conditions: cited from earlier work
[17] = test system: pro-inflammatory cytokines (e.g. IL-1, TNF-alpha and IL-10); conditions: cited from earlier work
[18] = test system: cytochrome P-450 enzymes (e.g. CYP2E1) and flavin-containing monooxygenases; conditions: cited from earlier work
[19] = after fresh garlic (e.g. 25 g) or pure allicin (60 mg); cited from earlier work
[20] = test system: nematodes; conditions: cited from earlier work
[21] = test system: plaque, mouth sores; test: Evaluation of the antimicrobial toothpaste by Applicant and evaluators; type: in vivo; conditions: as active ingredient of experimental toothpastes
Procedure: I decided to next try mixing it with the toothpaste that I normally use by squeezing out the contents of a tube of Arm and Hammer Dental Care Toothpaste into a bowl, mixing in 10 ml (2 teaspoons) of 1/200 diluted allyl mercaptan, and then returning the toothpaste to the tube. […] Mixing with a conventional toothpaste provides an adequate carrier for the allium related compound. More generally, of course, any orally acceptable carrier suitable for application to the teeth may be used. […] This includes the carriers used in commercially available toothpastes, tooth powders, or other dentifrice products.
The resulting toothpaste has no significant “garlic” smell or taste. It left the mouth feeling very clean, so clean that unwaxed dental floss “squeaks” when slid up and down the side of each tooth.
Several friends and acquaintances were willing to try the toothpaste and provide feedback. Under a “Nondisclosure and Produce Evaluation Agreement” I supplied them with free samples to evaluate. The agreement specified that the samples are not for sale, that the inventive aspects of the samples are confidential, and that the samples have no warranty.
A commercial version of the toothpaste (using onion oil as the active ingredient) is now being manufactured under license by Viola Vitalis corporation of Dhaka, Bangladesh (a company that is partially owned by the applicant).

[22] = test system: 13 types of bacteria; conditions: cited from earlier work
[23] = test system: liver glutathione level; conditions: cited from earlier work

Molecule: S-allylcysteine sulfoxide [alliin]
- effect on Cu2^+ induced LDL oxidation [1]: significantly reduce

Molecule: C=CCSC [AMS, allyl methyl sulfide]
- time of disappearance from breath [2]: ~20 h

Molecule: C=CCSC[C@H](N)C(=O)O [S-allylcysteine]
- breath AMS and acetone production [2]: produces no breath AMS or acetone
- effect on Cu2^+ induced LDL oxidation [1]: significantly reduce

Molecule: N[C@@H](CS)C(=O)O [cysteine, Cysteine]
- deactivation of the trypsin enzyme inhibitor [3]: over 90%
- pKa [4]: approximately 8.5

Molecule: C=CCSCC=C [DAS]
- breath AMS and acetone production [2]: only produces breath acetone

Molecule: C=CCSSC[C@H](N)C(=O)O [SAMC, S-AllylMercaptoCysteine]
- breath AMS and acetone production [2]: produce both breath AMS and acetone
- metabolism in blood [5]: metabolize directly in blood to allyl mercaptan
- Reaction in Blood Half-life [5]: 3 min
- effect on Cu2^+ induced LDL oxidation [1]: significantly reduce
- total glutathione level of cells [6]: significantly increase; also recorded: significant increases the total glutathione level
- protection from acetaminophen poisoning, pretreatment ([7]; pretreatment): protect mice from acetaminophen poisoning
- protection from acetaminophen, post treatment ([7]; single dose 200 mg/kg shortly after exposure): protective

Molecule: C=CCSSC=CC[S+]([O-])CC=C (mixture of isomers) [ajoene]
- breath AMS and acetone production [2]: produce both breath AMS and acetone
- metabolism in blood [5]: metabolize directly in blood to allyl mercaptan

Molecule: [AsH3] [arsenic]
- fraction excreted directly from the liver to the bile [8]: ~40%

Molecule: N[C@@H](CSN=O)C(=O)O [S-Nitrosocysteine]
- donor concentration that nearly completely inhibits the activation of NFkB ([9]; nitric oxide donor): 1 micro mole

Molecule: C=CCSSSCC=C [diallyl trisulfide]
- breath AMS and acetone production [2]: produce both breath AMS and acetone
- metabolism in blood [5]: metabolize directly in blood to allyl mercaptan

Molecule: [N]=O [nitric oxide]
- concentration that nearly completely inhibits the activation of NFkB [9]: less than 1 micro-mole
- half life in circulation [10]: about 5 seconds
- concentration that inhibited DNA binding activity of p50 and P65 [11]: 20-100 nano mole

Molecule: C=CCS [AllylSH, AllylThiol]
- time of disappearance from breath [2]: ≤ 1 h
- plaque [12]: reduction in plaque
- Reaction with Cysteine Half-life [13]: 80 min

Molecule: O=C1O[C@H]([C@@H](O)CO)C(O)=C1O [vitamin C, ascorbic acid]
- mean percentage decrease of glutathione [14]: 60%
- cytotoxicity of chemotherapeutic arsenicals [15]: increase the cytotoxicity

Molecule: C=CCSC[C@H](NC(C)=O)C(=O)O [N-acetyl-S-allylcysteine]
- effect on Cu2^+ induced LDL oxidation [1]: significantly reduce

Molecule: C=CCS[S+](C)[O-] (centres unmarked) [methyl allyl thiosulfinate]
- effectiveness against E-coli O157:H7 [16]: effective

Molecule: C=CCSSCC=C [DADS, Diallyl Disulfide]
- expression of pro-inflammatory cytokines [17]: inhibit the expression
- breath AMS and acetone production [2]: produce both breath AMS and acetone
- activity of the enzymes producing allicin from DADS [18]: up to 121 pmol/min/pmol CYP2D6
- conversion of DADS to allicin ([18]; in 30 minutes): approximately 30%
- metabolism in blood [5]: metabolize directly in blood to allyl mercaptan
- Reaction in Blood Half-life [5]: 60 min
- Reaction with Cysteine Half-life [13]: 45 min

Molecule: C=CCS[S+]([O-])CC=C (centres unmarked) [Allicin, DiAllylThioSulfinate]
- detectability in blood, urine, or stool [19]: undetectable
- Reaction in Blood Half-life [5]: <1 min
- time for metabolism to allyl mercaptan ([5]; red blood cells exposed to allicin): less than one minute
- Reaction with Cysteine Half-life [13]: <1 min

Molecule: CCCCS(=N)(=O)CCC(N)C(=O)O (centres unmarked) [BSO, buthionine sulfoximine]
- cytotoxicity of chemotherapeutic arsenicals [15]: increase the cytotoxicity

Molecule: CCCS[S+]([O-])CCC (centres unmarked) [dipropyl thiosulfinate, Dipropyl Thiosulfinate]
- nematicidal activity ranking [20]: most effective compound found

Molecule: CCCSSCCC [DPDS, di-n-propyl disulfide]
- expression of pro-inflammatory cytokines [17]: inhibit the expression
- performance relative to the allyl mercaptan toothpaste [21]: performed similarly

Molecule: CS[S+](C)[O-] (centres unmarked) [methyl methane thiosulfinate, Methyl methanethiosulfinate]
- effectiveness against E-coli O157:H7 [16]: effective

Molecule: O=C(N[C@H](CO)[C@H](O)c1ccc([N+](=O)[O-])cc1)C(Cl)Cl [Chloramphenicol]
- average zone of inhibition [22]: 20 mm
- species inhibited [22]: 12/13

Molecule: sodium arsenate
- liver glutathione level ([23]; protein deficient (6%) rats, unexposed controls 74): 134 micrograms per gram
- liver glutathione level ([23]; well fed rats (18% protein), unexposed controls 88): 123 micrograms per gram
